Source: patent US9371265B2, “Compositions and methods related to inhibitors of JAK kinase” (EP PHARMA, INC., priority 2012, dated 2016)

Legend:
[1] = target: AXL (Homo sapiens, UniProt P30530); test: Kinase panel: AXL; assay type: biochemical; conditions: 10 μM EP009
Description: (§1) Achieving JAK3 selectivity remains a significant challenge in the development of new small molecules for the treatment of cancer and immune-derived diseases. As such, the inventors employed cell-based screening assays of small-molecule libraries based upon the chemical scaffold of the established JAK3 inhibitor NC1153 (Stepkowski et al., J Immunol. (2005), 175(7):4236-4246) EP009 (FIG. 2A) was selected as a lead compound due to improved intrinsic stability (>95% purity in various solvents at 37° C. for 24 hours; FIG. 3) and high-degree of JAK3 selectivity. To test JAK3 versus JAK2 specificity of EP009, the IL-2/JAK3-dependent Kit225, and IL-3/JAK2-dependent BaF/3 cell lines were used. Kit225 and BaF/3 cells growing in the presence of IL-2 or IL-3, respectively, were treated with ascending concentrations of EP009 for 12 hours and cellular JAK3 and JAK2 tyrosine phosphorylation levels detected by Western blot analysis (FIGS. 2B and 2C). Following densitometric analysis, EP009 was determined to dose-dependently reduce IL-2-mediated JAK3 tyrosine phosphorylation with a cellular 50% inhibitory concentration (IC50) between 10 and 20 μM (FIG. 2B). […] To globally evaluate specificity, the inhibitory activity of EP009 was measured against a panel of protein kinases distributed throughout the kinome using the scanEDGE profiling service (KINOMEscan). […]

[2] = system: SU-DHL-1 tumors; test: SU-DHL-1 xenograft human lymphoma model; assay type: in vivo, SCID/NOD mice
Description: FIGS. 9A-9B Pharmacokinetics and efficacy of EP009 in vivo. (A) Sprague Dawley rats were administered EP009 by oral gavage (200 mg/kg) and pharmacokinetics measured by analysis of plasma concentrations at indicated time points. Values represent mean concentrations, while error bars represent the standard deviation (n=5). (B) Therapeutic study of EP009 in SU-DHL-1 model in SCID/NOD mice.
Severe combined immunodeficient/nonobese diabetic (SCID/NOD) mice were purchased from Charles River (Milan, Italy). The SU-DHL-1 model, 28 which was established by subcutaneous injection of 1×10^7 SU-DHL-1 cells in the left flank of SCID/NOD mice, served as the xenograft human lymphoma model. Tumor masses were measured with caliper in two perpendicular diameters in a blind fashion to determine the longest diameter. Progressively growing masses >1 mm in diameter were regarded as tumors. Mice were divided into three groups (n=8/group) and treatments initiated when tumors were established and measurable (day 16 after tumor challenge). Control mice received oral gavage of saline (placebo), while treated mice received EP009 orally (100 or 200 mg/kg) three times per week for six weeks. The study was terminated when tumors began to show signs of ulcerations and measurements became inaccurate (day 58). All animal were maintained in the animal facility of the Molecular Biotechnology Center, University of Turin and treated in accordance with the European guidelines.

[3] = target: TGFBR1 (Homo sapiens, UniProt P36897); test: Kinase panel: TGFBR1; assay type: biochemical; conditions: 10 μM EP009
Sequence of TGFBR1 (P36897 34-503): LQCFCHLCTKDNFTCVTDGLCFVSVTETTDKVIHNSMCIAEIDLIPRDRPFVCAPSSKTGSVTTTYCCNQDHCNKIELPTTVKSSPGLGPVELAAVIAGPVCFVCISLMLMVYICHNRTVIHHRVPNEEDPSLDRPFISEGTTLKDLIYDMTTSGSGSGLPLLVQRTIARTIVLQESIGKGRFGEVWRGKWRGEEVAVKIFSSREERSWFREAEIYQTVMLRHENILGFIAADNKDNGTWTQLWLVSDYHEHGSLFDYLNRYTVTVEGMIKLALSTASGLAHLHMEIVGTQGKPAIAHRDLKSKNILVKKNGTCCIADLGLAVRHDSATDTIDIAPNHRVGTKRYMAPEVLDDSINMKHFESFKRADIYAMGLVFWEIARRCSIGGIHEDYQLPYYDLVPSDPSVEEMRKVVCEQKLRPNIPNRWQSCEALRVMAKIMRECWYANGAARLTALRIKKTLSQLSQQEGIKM
Description: as §1

[4] = target: PIK3C2B (Homo sapiens, UniProt O00750); test: Kinase panel: PIK3C2B; assay type: biochemical; conditions: 10 μM EP009
Sequence of PIK3C2B (O00750 whole entry): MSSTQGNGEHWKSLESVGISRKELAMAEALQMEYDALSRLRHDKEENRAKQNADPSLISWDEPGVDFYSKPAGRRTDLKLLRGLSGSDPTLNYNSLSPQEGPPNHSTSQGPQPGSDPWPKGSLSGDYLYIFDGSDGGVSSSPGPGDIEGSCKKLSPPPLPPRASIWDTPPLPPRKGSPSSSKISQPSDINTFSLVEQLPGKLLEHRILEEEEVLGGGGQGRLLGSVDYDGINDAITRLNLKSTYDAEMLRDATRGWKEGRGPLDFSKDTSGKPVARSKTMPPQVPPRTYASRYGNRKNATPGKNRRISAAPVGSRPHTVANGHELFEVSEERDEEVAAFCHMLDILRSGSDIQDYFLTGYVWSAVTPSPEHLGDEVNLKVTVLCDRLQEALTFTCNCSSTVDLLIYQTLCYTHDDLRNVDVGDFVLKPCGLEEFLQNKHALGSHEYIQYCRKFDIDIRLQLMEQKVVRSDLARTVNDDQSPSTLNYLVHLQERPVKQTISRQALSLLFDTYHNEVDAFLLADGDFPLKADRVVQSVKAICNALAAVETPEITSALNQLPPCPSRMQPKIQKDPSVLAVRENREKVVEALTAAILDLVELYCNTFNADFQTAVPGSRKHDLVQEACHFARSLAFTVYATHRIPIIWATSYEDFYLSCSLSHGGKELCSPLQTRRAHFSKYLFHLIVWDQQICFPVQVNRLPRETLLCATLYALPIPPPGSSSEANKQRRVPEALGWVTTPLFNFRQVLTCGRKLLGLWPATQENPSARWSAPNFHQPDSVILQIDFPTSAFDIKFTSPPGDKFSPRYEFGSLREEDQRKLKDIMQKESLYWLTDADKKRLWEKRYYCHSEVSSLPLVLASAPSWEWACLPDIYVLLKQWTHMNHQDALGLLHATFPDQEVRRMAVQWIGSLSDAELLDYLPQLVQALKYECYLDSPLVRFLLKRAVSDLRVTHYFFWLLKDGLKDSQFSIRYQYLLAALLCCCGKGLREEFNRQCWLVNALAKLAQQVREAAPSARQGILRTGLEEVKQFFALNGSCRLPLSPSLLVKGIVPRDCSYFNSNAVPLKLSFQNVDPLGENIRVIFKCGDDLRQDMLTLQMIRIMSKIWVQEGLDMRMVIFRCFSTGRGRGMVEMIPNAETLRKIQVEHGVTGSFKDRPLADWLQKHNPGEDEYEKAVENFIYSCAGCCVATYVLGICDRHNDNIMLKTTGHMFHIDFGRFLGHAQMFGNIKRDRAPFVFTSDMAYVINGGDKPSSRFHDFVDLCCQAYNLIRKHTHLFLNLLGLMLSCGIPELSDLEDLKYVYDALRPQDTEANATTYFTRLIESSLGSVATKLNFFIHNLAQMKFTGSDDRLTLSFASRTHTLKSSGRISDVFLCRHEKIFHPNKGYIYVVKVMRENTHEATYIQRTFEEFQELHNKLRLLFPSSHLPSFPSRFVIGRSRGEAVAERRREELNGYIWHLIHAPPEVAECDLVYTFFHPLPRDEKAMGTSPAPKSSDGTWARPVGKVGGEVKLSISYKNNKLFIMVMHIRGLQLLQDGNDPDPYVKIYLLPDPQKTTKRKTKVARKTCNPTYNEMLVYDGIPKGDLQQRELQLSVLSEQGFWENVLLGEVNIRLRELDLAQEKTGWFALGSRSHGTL
Description: as §1

[5] = target: PIM1 (Homo sapiens, UniProt P11309); test: Kinase panel: PIM1; assay type: biochemical; conditions: 10 μM EP009
Sequence of PIM1 (P11309 whole entry): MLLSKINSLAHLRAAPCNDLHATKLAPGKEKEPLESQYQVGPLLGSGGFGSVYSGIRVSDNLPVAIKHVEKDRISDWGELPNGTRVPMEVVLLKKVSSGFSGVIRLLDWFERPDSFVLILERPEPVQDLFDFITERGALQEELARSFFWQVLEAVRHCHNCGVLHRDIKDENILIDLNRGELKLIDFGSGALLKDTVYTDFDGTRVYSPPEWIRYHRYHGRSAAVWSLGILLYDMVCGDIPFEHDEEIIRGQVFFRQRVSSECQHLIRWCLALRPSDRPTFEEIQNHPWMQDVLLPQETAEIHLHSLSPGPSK
Description: as §1

[6] = target: JNK3 (Homo sapiens, UniProt P53779); test: Kinase panel: JNK3; assay type: biochemical; conditions: 10 μM EP009
Sequence of JNK3 (P53779 whole entry): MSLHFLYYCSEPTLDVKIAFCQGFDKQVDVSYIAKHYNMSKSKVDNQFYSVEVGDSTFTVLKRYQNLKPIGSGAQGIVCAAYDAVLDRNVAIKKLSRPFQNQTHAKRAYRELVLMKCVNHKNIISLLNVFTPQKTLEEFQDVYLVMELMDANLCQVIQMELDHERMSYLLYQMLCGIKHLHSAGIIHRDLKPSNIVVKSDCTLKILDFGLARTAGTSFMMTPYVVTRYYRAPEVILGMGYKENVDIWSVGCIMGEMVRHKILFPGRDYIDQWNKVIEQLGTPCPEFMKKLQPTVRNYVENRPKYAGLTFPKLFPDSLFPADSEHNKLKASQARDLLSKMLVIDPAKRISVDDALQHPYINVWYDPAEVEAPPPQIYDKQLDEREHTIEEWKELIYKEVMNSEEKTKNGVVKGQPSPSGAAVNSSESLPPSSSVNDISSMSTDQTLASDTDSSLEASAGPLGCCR
Description: as §1

[7] = system: caspase 3; test: Caspase 3 activation in SU-DHL-1 cells (Luminex multiplex); assay type: cell-based, human; conditions: 24 hours, dose-dependent
Description: FIGS. 7A-7C. EP009 reduces ALCL cell viability through induction of caspase 3 mediated apoptosis. (A) SUP-M2, SU-DHL-1 or H2228 cells were cultured with increasing amounts of EP009 (0-10 μM) for 72 hours and cell viability measured with the MTS tetrazolium salt assay. Values represent mean absorbance (OD490-OD650 nm) normalized to vehicle (PBS) treated control cells, while error bars represent the standard deviation (n=3). (B) SU-DHL-1 cells were treated with vehicle (PBS) or increasing amounts of EP009 (0-50 μM) for 24 hours. Cells were then lysed, clarified, and subjected to Luminex multiplex analysis to detect activated caspase 3 and (C) cleaved PARP. Values represent MFI normalized to corresponding GAPDH MFI, while error bars represent the standard deviation (n=2). Representative data from three independent experiments are shown. Statistical significance was determined using Student's t-test. (*, p<0.05).
The MILLIPLEX MAP 8-plex Multi-Pathway Signaling Phosphoprotein kit (Millipore) was used to detect phosphorylated ERK1/2 (Thr185/Tyr187), STAT3 (Ser727), JNK1/2 (Thr183/Tyr185), p70 S6 kinase (Thr412), IκBα (Ser32), STAT5A/B (Tyr694/699), CREB (Ser133), and p38 (Thr180/Tyr182). The MILLIPLEX MAP 5-plex STAT Phosphoprotein kit (Millipore) was used to detect phosphorylated STAT1 (Tyr701), STAT2 (Tyr690), STAT3 (Tyr705), STAT5A/B (Tyr694/699), and STAT6 (Tyr641). […]

[8] = target: AURKA (Homo sapiens, UniProt O14965); test: Kinase panel: AURKA; assay type: biochemical; conditions: 10 μM EP009
Sequence of AURKA (O14965 whole entry): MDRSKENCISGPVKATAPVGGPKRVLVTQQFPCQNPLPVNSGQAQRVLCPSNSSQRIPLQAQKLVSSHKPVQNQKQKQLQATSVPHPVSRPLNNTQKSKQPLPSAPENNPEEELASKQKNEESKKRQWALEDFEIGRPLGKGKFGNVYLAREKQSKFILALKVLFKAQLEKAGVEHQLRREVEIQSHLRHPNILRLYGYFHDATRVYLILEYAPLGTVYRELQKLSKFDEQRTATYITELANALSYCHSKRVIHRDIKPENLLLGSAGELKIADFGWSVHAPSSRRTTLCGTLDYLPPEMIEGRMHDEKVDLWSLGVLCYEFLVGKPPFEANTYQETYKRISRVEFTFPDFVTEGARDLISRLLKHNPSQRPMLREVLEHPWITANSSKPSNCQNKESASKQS
Description: as §1

Sequence of AXL (P30530 26-894): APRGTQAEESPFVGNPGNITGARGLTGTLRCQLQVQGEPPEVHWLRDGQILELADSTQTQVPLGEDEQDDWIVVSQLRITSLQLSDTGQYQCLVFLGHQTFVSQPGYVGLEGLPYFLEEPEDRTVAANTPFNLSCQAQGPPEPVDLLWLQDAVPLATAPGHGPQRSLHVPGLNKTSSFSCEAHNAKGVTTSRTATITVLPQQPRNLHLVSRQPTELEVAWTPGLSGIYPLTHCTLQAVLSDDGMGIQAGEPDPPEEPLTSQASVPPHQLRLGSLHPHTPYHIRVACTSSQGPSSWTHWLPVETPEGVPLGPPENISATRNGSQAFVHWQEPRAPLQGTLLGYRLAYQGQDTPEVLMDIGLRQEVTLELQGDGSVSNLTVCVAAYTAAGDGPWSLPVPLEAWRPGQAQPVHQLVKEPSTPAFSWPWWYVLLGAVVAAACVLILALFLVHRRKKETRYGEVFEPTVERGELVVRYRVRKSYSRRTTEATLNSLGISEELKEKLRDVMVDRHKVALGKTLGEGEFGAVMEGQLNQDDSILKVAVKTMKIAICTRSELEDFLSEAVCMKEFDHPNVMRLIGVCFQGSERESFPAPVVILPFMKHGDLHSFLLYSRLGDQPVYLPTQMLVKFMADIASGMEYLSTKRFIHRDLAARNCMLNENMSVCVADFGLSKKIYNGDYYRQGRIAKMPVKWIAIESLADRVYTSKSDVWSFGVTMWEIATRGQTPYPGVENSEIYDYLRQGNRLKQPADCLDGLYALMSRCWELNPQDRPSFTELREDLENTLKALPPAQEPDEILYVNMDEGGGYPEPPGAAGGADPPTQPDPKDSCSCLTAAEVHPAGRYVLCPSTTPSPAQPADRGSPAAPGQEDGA

C=C1CCCCCCCCCC(CO)C1=O (centres unmarked) [EP009, 2-(Hydroxymethyl)-12-methylenecyclododecanone]
Kinase Activity (% of Control) [1]: 96 % of Control
tumor growth inhibition ([2]; oral 100 mg/kg three times per week, p<0.05): 37.5%
tumor growth inhibition ([2]; oral 200 mg/kg three times per week, p<0.01): 51%
body weight changes ([2]; oral 100 and 200 mg/kg): No significant body weight changes
Kinase Activity (% of Control) [3]: 100 % of Control
Kinase Activity (% of Control) [4]: 70 % of Control
Kinase Activity (% of Control) [5]: 100 % of Control
Kinase Activity (% of Control) [6]: 100 % of Control
caspase-3 activation [7]: increased
inhibition of Aurora kinase A (AURKA) [8]: 45 % inhibition
Kinase Activity (% of Control) ([8]; AURKA): 55 % of Control
